pIC50: −log10 of the molar value.

This assay relates to P. falciparum 3D7 growth, pLDH absorbance. The assay can be described thus: blood-stage malaria parasite growth potency – strain 3D7, dose response (AID 2305).
As a reminder, the pIC50 is the negative decadic logarithm of the IC50, by convention in mol/L. A low value points to a high IC50. Consider `Cc1noc(C)c1-c1ccc2c(Nc3ccccc3C(C)(C)C)c(C(=O)NCc3ccc(OC(C)C)cc3)cnc2c1`, for which the pIC50 was 6.04. `O=C(NCCCCN1CCC(O)(c2ccc3c(c2)OCO3)CC1)c1ccc(NC(=O)c2ccc(Cl)cc2)cc1` had a pIC50 of 5.93. As for `CC(C)COc1ccc(Cl)cc1Cc1nc(-c2nc3ccc(CN4CCCC4)cc3[nH]2)co1`, the figure is 6.14; as for `COc1ccc(-c2cccc(NC(=O)c3ccc(C#N)cc3)c2)cc1CN1CCCC1`, 6.15; as for `CCOc1cccc2nc(NCCCNCc3ccc(Cl)c(Cl)c3)cc(NCCCNCc3ccc(Cl)c(Cl)c3)c12`, 6.24. In the case of `Oc1ccc(CCNc2nc(NCCCOc3ccccc3-c3ccc(C(F)(F)F)cc3)nc(N3CCNCC3)n2)cc1` it was 6.05; in that of `O=c1[nH]ccc2nc(N[C@@H]3CCNC3)nc(Nc3cccc(S(=O)(=O)N4CCOCC4)c3)c12`, 5.91; in that of `Cc1noc(C)c1-c1cccc(CNCc2cccc(-c3ccc(-c4nc5c(C)cccc5[nH]4)s3)c2)c1`, 6.68. Turning to `OC1CCCN(Cc2cccc(-c3ccc(-c4nc5ccc(C(F)(F)F)cc5[nH]4)cc3)c2)C1` (stereo not drawn), the negative logarithm of the IC50 (pIC50) is 6.16. As for `NC(N)=NN=Cc1c2ccccc2c(Cl)c2ccc(Cl)cc12`, the negative-log IC50 (pIC50) is 6.64. Compared with the last compound, the pIC50 is 0.48 log units higher. As for `CNCCNCc1cccc(-c2ccc(-c3nc4ccccc4[nH]3)s2)c1`, the figure is 6.08.

For `Cc1cccc2[nH]c(-c3ccc(-c4cccc(NCc5cn6cccnc6n5)c4)cc3)nc12`, the pIC50 is 6.10. For the compound `FC(F)(F)c1ccc(Nc2nnnc3ccccc23)cc1`, the pIC50 was 6.16.

In turn, `O=C(NCCN1CCCCC1)N1CCCN(c2ncnc3cc(-c4ccccc4)sc23)CC1` had a pIC50 of 6.64. In the case of `O=C(/C=C/c1ccc(Cl)c(Cl)c1)NCCCCCN1CCCN(C(=O)Nc2ccc(OC(F)F)cc2)CC1` it was 6.08; in that of `O=C1CCCN1CCCNCc1ccc(-c2ccc(-c3nc4ccc(C(F)(F)F)cc4[nH]3)s2)cc1`, 6.42; in that of `CCc1c[nH]c2c(N(c3ccccc3)S(C)(=O)=O)cc(C(=O)N[C@@H](Cc3ccccc3)[C@H](O)CNC(C)(C)CCCC(C)C)cc12`, 6.09. As for `CNC(=O)c1ccc2[nH]cc(C3CCN(CC4CCC(NC(=O)/C=C/c5ccc(Cl)c(Cl)c5)CC4)CC3)c2c1` (stereo not drawn), the figure is 6.00; as for `CN(C)c1nc2cc(-n3cnc4cc(-c5ccc(Cl)cc5)sc4c3=O)ccc2n1CCCN1CCCC1`, 6.07; as for `COc1ccc(-n2cc(CNCCCn3ccnc3)c(-c3cccc(F)c3)n2)cc1`, 5.97. As for `CC(C)CN1CCCN(Cc2cccc(NC(=O)c3cc4ccccc4s3)c2)CC1`, the figure is 5.75. `N#Cc1ccc(-c2ccc(OCC(O)CN3CCCN(C(=O)C(c4ccc5c(c4)OCO5)N4CCN(C/C=C/c5ccccc5)CC4)CC3)cc2)cc1` (stereo not drawn) gave a pIC50 of 6.19.

For the compound `CC[C@@]1(O)C(=O)OCc2c1cc1n(c2=O)Cc2c-1nc1cc3c(cc1c2CN1CCOCC1)OCO3`, the pIC50 was 6.02. Take `CN1CCCC(CN2CCN(Cc3ccc(-c4ccc(-c5nc6ccccc6[nH]5)cc4)cc3)CC2)C1` (stereo not drawn): the negative-log IC50 (pIC50) is 6.85. Compared with the last compound, the pIC50 is 0.83 log units higher. As for `Cc1cc(N(CCCN(C)C)Cc2cc(F)cc(F)c2)nc(Nc2ccc(Cl)cc2)n1`, the figure is 6.27; as for `NC(N)=Nc1nc(-c2cccc(NC(=O)NCC(c3ccccc3)c3ccccc3)c2)cs1`, 6.10; as for `O=C(C=Cc1ccc(Cl)c(Cl)c1)NCCCCCN1CCC(CCCNS(=O)(=O)c2ccc(F)cc2)CC1`, 5.99. In the case of `C[C@H](Cc1ccc(OCCCCCCOc2ccc(C[C@@H](C)NC(=O)[C@H](O)c3cccc(Cl)c3)cc2)cc1)NC[C@H](O)c1cccc(Cl)c1` it was 6.42; in that of `COc1cc(C)nc2ccc(NC(=O)COCC(=O)Nc3ccc4nc(C)cc(OC)c4c3)cc12`, 6.04. In the case of `Cc1cc(NCC2CCN(CC3CCCCC3)C2)nc(Nc2ccc(Cl)cc2)n1` (stereo not drawn) it was 6.13. In turn, `N#Cc1cc(C(=O)Nc2ccccc2)c(N)nc1SCC(=O)NC(c1ccccc1)c1cccs1` (stereo not drawn) showed a pIC50 of 6.21.

Turning to `Cc1ccc(Oc2ccc(CNc3nc(Nc4cccc(F)c4)nc(Nc4cccc(F)c4)n3)cc2)cc1`, the negative-log IC50 (pIC50) is 5.92. Against the preceding compound, the pIC50 is 0.29 log units lower. In the case of `CC(C)c1ccc(NC(=O)Nc2ccc(CCNCCCc3ccccc3)cc2)cc1` it was 6.12; in that of `Clc1cc(Nc2ccnc3ccc(Br)cc23)ccc1Oc1ccc2ccccc2c1Cl`, 6.14. As for `CC1(C)C(=O)Nc2ccc3c(c21)CC1SC(=O)NN=C31` (stereo not drawn), the figure is 5.83. In the case of `Clc1ncnc2ncn(Cc3cccc(Br)c3)c12` it was 5.97; in that of `C=CCNS(=O)(=O)c1ccc(NC(=O)C(C)Oc2ccc([N+](=O)[O-])cc2)cc1` (stereo not drawn), 5.91; in that of `NCC1CCCN1Cc1ccc(-c2ccc(-c3nc4ccccc4[nH]3)s2)cc1` (stereo not drawn), 6.03. Consider `CN1CCN(CCCN(Cc2csc(-c3ccc(CNCc4ccccc4)cc3)n2)S(=O)(=O)c2cccc3cccnc23)CC1`, for which the negative-log IC50 (pIC50) is 5.85. With `Oc1ccccc1CNCC12CC3CC(CC(C3)C1)C2`, the negative-log IC50 (pIC50) is 6.55. As for `CN(C)c1ccc(Br)c(Br)c1`, the figure is 6.01; as for `CCC(Cc1cnc2nc(N)nc(N)c2n1)c1ccc(C(=O)N[C@@H](CCC(=O)O)C(=O)O)cc1` (stereo partly drawn), 7.40.

`O=C(Nc1ccc(C(=O)N2CCN(CCN3CCN(c4cccc(C(F)(F)F)c4)CC3)CC2)cc1)c1ccc(C(F)(F)F)cc1`: the pIC50 is 6.16.

Source of the values: PubChem BioAssay AID2305 (GlaxoSmithKline (GSK), 2010).
